In general, viability refers to a read-out of living cells in per cent, often relative to untreated cells.

Data set [1] in a line: Solubility of peptides at pH 7.4 and 6.5 (Example 13). Format: physicochemical. The text has this: Five pH sensitive peptides of the following sequences, […] (SEQ ID NO: 17), […] (SEQ ID NO: 18), […] (SEQ ID NO: 19), […] (SEQ ID NO: 20) and […] (SEQ ID NO: 8) were similarly synthesized by the method described in Example (1). Peptides […] (SEQ ID NO: 17) and […] (SEQ ID NO: 18) were soluble at both pH 7.4 and 6.5. Peptides […] (SEQ ID NO: 19) and […] (SEQ ID NO: 20) were insoluble at both pH 7.4 and 6.5, with […] (SEQ ID NO: 20) forming nanoparticles of about 80 nm. Peptide […] (SEQ ID NO: 8) was insoluble above about pH 6.7 forming nanoparticles of about 50 nm and soluble below about pH6.7; i.e., it undergoes a pH-induced transition at about pH6.7. Therefore, the pH ranges of the hydrophobic/hydrophilic transition and the corresponding soluble/insoluble transition of peptides and their nanoparticles may be adjusted by changing one or more features of the peptide, e.g., sequence and length, and the hydrophobic block and the functional block to which the peptide is conjugated.

Data set [2] is described as follows: Solubility of peptide nanoparticles as a function of pH (Example 1, FIG. 1B). Format: physicochemical. The conditions noted are these: phosphate buffer solution. The text has this:
A pH sensitive peptide (Ac-[…]-NH2) (SEQ ID NO: 9) was synthesized by the solid phase method. Amino acids blocked by the fluorinylmethyloxycarbonyl (FMOC) group were utilized to couple to a Rink amide resin. Piperideine, N-methylmorpholine (NMM), and hexafluorophosphate (HBTU) in dimethylformamide were used to remove the FMOC group and activate amino acids. The peptide was acetylated with acetic anhydride at the N-terminus and cleaved with trifluoroacetic acid/triisopropylsilane/water (95%/2.5%/2.5%). […] Such peptide spontaneously forms nanoparticles at pH 7.4. The solubility of nanoparticles was measured as a function of pH. […] Therefore, there is a sharp transition spanning over a pH interval of only 0.1. The increasing solubility at lower pH is believed to be due to the increasing protonation of the histidine group.

Data set [3] in a line: Cytotoxicity by lactic dehydrogenase (LDH) assay. Format: cell-based, human. Particulars: human, SKOV3 cells, read-out: cell viability. The method, then: (§1) FIGS. 4A and 4B show lack of cytotoxicity of a pH sensitive peptide solution for SKOV3 cells.
(§2) Cytotoxicity, i.e., the effect of peptide on tumor cell viability, was determined using lactic dehydrogenase (LDH) assay. Cells (SKOV3 cells, a human carcinogenic cell line from ovarian cancer) were plated in 96-well plates (10,000 per well for SKOV3) and allowed to adhere overnight at 37° C. in a humidified atmosphere of 5% CO2. […] The medium was next removed, the LDH assay lysis solution was added, and the wells were kept at 37° C. for another 45 minutes. Finally, the LDH assay mixture was added and the wells were held at room temperature for still another 20-30 minutes before the absorbance was spectrophotometrically measured at a wavelength of 490 nm on a SpectraMax (Molecular Devices). […] This was confirmed by the spectrophotometric intensity of dead cells, shown in the lower panel, which was near zero, meaning it is indistinguishable from that of the control. Therefore, the peptide itself is non-toxic and biocompatible.

The next data set has as its system SKOV3 cells. Briefly: Cytotoxicity by lactic dehydrogenase (LDH) assay. Format: cell-based, human. The conditions noted are these: control set as zero. The method, then: as §1, §2
Data set [4] in a line: Solubility of hydrophobic drugs in water versus concentration in nanoparticles. The conditions noted are these: nanoparticles of Example 9 / Example 10. Format: physicochemical.
The conditions of data set [5]: cited from earlier work.
Data set [6] deals with HCC1806 tumor (triple-negative breast cancer). Briefly: Tumor growth in HCC1806 tumor inoculated mice. The class given is in vivo. Particulars: 100 mg LND/kg in tris-glycine buffer, intraperitoneal injection.

Read-outs that look alike come from different tables or passages of the source.

Ac-KGGHFFHGHFFHGK-NH2: the solubility of peptide result in data set [1] (pH 6.5) and in data set [1] (pH 7.4) was “soluble” throughout.
For Ac-HFFHGHFFHGHFFHGKK-NH2, the “solubility of peptide and nanoparticle” value in data set [2] (above pH 7.2) is “completely insoluble”; in data set [2] (at pH 7.0), “mostly insoluble”; in data set [2] (below pH 6.7), “completely soluble”; in data set [2] (below pH 6.9), “mostly soluble”. The “pH interval spanned by the sharp solubility transition” value in data set [2] came out at 0.1. Further, the “pH of sudden fall indicating dissolution of peptide construct from nanoparticle” value in data set [2] (FIG. 1B) amounted to 6.9. For the same compound, the viability at 3 h in data set [3] (pH 6.8, 3 hours with peptide then 24 hours) was ~100%; in data set [3] (pH 7.4, 3 hours with peptide then 24 hours) it was ~100%. The “spectrophotometric intensity of dead cells (LDH release)” value in the data set with SKOV3 cells was “near zero”.
For Ac-GHFFHGFFFH-NH2, the solubility of peptide result in data set [1] (pH 6.5) and in data set [1] (pH 7.4) was “insoluble” throughout.
On to Ac-GHFFHGHFFH-NH2, for which the solubility of peptide entry in data set [1] (pH 6.5) and in data set [1] (pH 7.4) was “soluble” in each case.
With `CC(=O)O[C@H]1C(=O)[C@@]2(C)[C@H]([C@H](OC(=O)c3ccccc3)[C@]3(O)C[C@H](OC(=O)[C@H](O)[C@@H](NC(=O)c4ccccc4)c4ccccc4)C(C)=C1C3(C)C)[C@]1(OC(C)=O)CO[C@@H]1C[C@@H]2O` [paclitaxel], the “concentration of drug in pH-sensitive peptide nanoparticle preparation” value in data set [4] is on record as 1 mg/ml. For the same compound, the solubility in water result in data set [5] was “about 0.3 μg/ml”.
Regarding Ac-GFFFHGFFFH-NH2, the solubility of peptide result in data set [1] (pH 6.5) and in data set [1] (pH 7.4) was “insoluble” each time.
For the compound `O=C(O)c1nn(Cc2ccc(Cl)cc2Cl)c2ccccc12` [LND, lonidamine], in data set [6], the “duration of tumor growth delay effect compared to control” value was “about 10 days”. In addition, the “concentration of drug in pH-sensitive peptide nanoparticle preparation” value in data set [4] is reported as 1 mg/ml. The solubility in water result in data set [5] was “about 17 μg/ml”.

The values are drawn from patent publication US10058622B2, “PH-sensitive peptides and their nanoparticles for drug delivery” (THE TRUSTEES OF THE UNIVERSITY OF PENNSYLVANIA, priority 2013, dated 2018).
